Biological target: T1, N (1-249) (Severe acute respiratory syndrome coronavirus 2, UniProt P0DTC9)
T1 construct: fragment 1-249 of the 419-residue protein (IDR1, NTD, IDR2); pET-28a, N-terminal 6xHis-SUMO tag removed with TEV protease; E. coli BL21; 15N-labelled
Test: biochemical
Type: binding

## Nc1ncnc2c1ncn2[C@@H]1O[C@H](COP(=O)(O)OP(=O)(O)OP(=O)(O)O)[C@@H](O)[C@H]1O [ATP]
  Kd: 2000 ± 200 µM
